Measurements published in patent publication US20250296951A1, “GPX4 Inhibitors and Senolytic Compounds and Uses Thereof” (Rubedo Life Sciences, Inc., priority 2024, published 2025).

How the values were obtained:
Assay type in all cases: cell-based
senescent NHDF cells = assay: Senescence assay, viability of senescent NHDF cells; details: Homo sapiens; chemotherapy-induced senescent NHDF cells, 24-72 hours with compound, viability by CellTiter-Glo or XTT; read-out: NHDF_SEN IC50 (Absolute IC50 average)
Experimental: (§1) Cells were maintained in DMEM media (high glucose, 4 mM L-glutamine, no sodium pyruvate) supplemented with 10% fetal bovine serum in a humidified incubator at 37° C. with 5% carbon dioxide. Senescence was induced via treatment with a sublethal concentration of chemotherapy (bleomycin, gemcitabine, doxorubicin, 5-fluorouridine), followed by a rest period without chemotherapy similarly to what is reported by others in the field (e.g., Aoshiba et al., 2003 Eur Respir J 22:436-443). Senescence was qualified by low EdU (5-ethynyl-2′-deoxyuridine) incorporation and high SA-β-Gal (senescence-associated beta-galactosidase) staining compared to proliferating untreated cells. Senescent cells were plated into 96-well plates at a density of 5-15,000 cells/well. The next day, compounds were added in duplicate across ten different concentrations spanning roughly four Log 10 units. Cells were incubated with the compounds for 24-72 hours, at which point viability is quantified using CellTiter-Glo (Promega) or XTT (R&D Systems). The viability for treated cells was determined relative to untreated control cells. The log of the compound concentration vs. normalized mean viability was a fit to a four parameters Hill function with variable slope. The bottom was constrained to be greater than zero. The X mean value for Y=50 interpolated to determine the absolute IC50. […]

senescent IMR90 cells = assay: Senescence assay, viability of senescent IMR90 cells; details: Homo sapiens, IMR-90; chemotherapy-induced senescent IMR90 cells, 24-72 hours with compound, viability by CellTiter-Glo or XTT; read-out: IMR90_SEN IC50 (Absolute IC50 average)
Experimental: as §1

senescent HEPG2 cells = assay: Senescence assay, viability of senescent HEPG2 cells; details: Homo sapiens; chemotherapy-induced senescent HEPG2 cells, 24-72 hours with compound, viability by CellTiter-Glo or XTT; read-out: HEPG2_SEN IC50 (Absolute IC50 average)
Experimental: as §1

senescent A549 cells = assay: Senescence assay, viability of senescent A549 cells; details: Homo sapiens; chemotherapy-induced senescent A549 cells, 24-72 hours with compound, viability by CellTiter-Glo or XTT; read-out: A549_SEN IC50 (Absolute IC50 average)
Experimental: as §1

C#CC(=O)[C@]1(O)CC[C@H]2[C@@H]3CCC4=CC(=O)CCC4=C3[C@@H](c3ccc(C4CC4)cc3)C[C@@]21C [Compound 2, (8S,11R,13S,14S,17S)-11-(4-cyclopropylphenyl)-17-hydroxy-13-methyl-17-propioloyl-1,2,6,7,8,11,12,13,14,15,16,17-dodecahydro-3H-cyclopenta[a]phenanthren-3-one] gave an IC50 (senescent NHDF cells) of 1 to 10 µM.

For C#CC(F)(F)[C@]1(O)CC[C@H]2[C@@H]3CCC4=CC(=O)CCC4=C3[C@@H](c3ccc(O)cc3)C[C@@]21C [Compound 1, (1S,3aS,3bS,10R,11aS)-1-(1,1-difluoroprop-2-yn-1-yl)-1-hydroxy-10-(4-hydroxyphenyl)-11a-methyl-2H,3H,3aH,3bH,4H,5H,8H,9H,10H,11H-cyclopenta[a]phenanthren-7-one], the IC50 (senescent IMR90 cells) was 0.1 to 1 µM, the IC50 (senescent HEPG2 cells) was 0.1 to 1 µM and the IC50 (senescent NHDF cells) was 0.1 to 1 µM. The IC50 (senescent A549 cells) was 1 to 10 µM.
